Measurements as given in US11213536B2, “Acylated compounds for the treatment of ocular pathologies” (CONSEJO SUPERIOR DE INVESTIGACIONES CIENTÍFICAS, priority 2016, dated 2022).
Marks after values point to notes of the source that are not given here.

Columns and labels:
RAW 264.7 macrophages = experiment: Inflammation parameters (TNF-α, NO, IL-6) in supernatant of LPS-stimulated RAW 264.7 macrophages; format: cell-based; settings: 10 μM, LPS 1 μg/ml, 24 h
Procedure: To determine the production of cytokines, 5×10^5 RAW 264.7 macrophages were seeded in 24-well plates (0.5 ml per well). The compounds to be tested were then added (10 μM), and the macrophages were either stimulated or not through the addition of LPS (1 μg/ml) to the culture medium. After 24 hours, the levels of IL-6 and TNF-α were measured in the supernatants by ELISA using the capture and biotinylated antibodies from BD PharMingen and PrepoTech (Gonzalez-Rey et al., Gut. 2009; 58:929-939; Sánchez et al., Stem Cells. 2011; 29:251-262). The levels of NO in the supernatants at 24 hours were measured indirectly by determining the nitrite concentration in the medium using the Griess reagent (Anderson et al., Gut. 2013; 62:1131-1141). A minimum of two independent experiments and three replicates per experiment were performed for each measured value. The values are expressed as the mean±standard deviation.
In the previous assay, the levels of various inflammation parameters were measured (TNF-α, NO, and IL-6) by ELISA after treatment with RES or with compound 2 (FIGS. 3, 4, and 5).

[1] = Zebrafish embryo toxicity assay; settings: in vivo, other: incubation of embryos with the compound, 0 to 96 hpf
Procedure: Twenty zebrafish embryos were incubated for each concentration of compound to be tested (1 to 4). The concentrations used of each compound are 0.1 μM, 1 μM, 10 μM, 100 μM and 1 mM. The incubation period goes from 0 to 96 hours post fertilization (hpf). A negative control of 1% DMSO and a positive control of N, N-diethylaminobenzaldehyde (DEAB) are included. After the incubation period, the LC50 (lethal dose for 50% of the animals) is calculated.

Prpf31^A216P/+ (KI) mice = experiment: Prpf31 A216P/+ mice RPE degeneration model, eye drops and light damage; format: in vivo, mouse; settings: for Fundus Normal (%) / Fundus Abnormal (number) / Fundus Normal (number) / Fundus Abnormal (%): 2 mM eye drops daily for two and a half months, 5,000 lux 3 h; for Fundus Abnormal (number) / Fundus Normal (number): n=10; for number of positive responses in optomotor test (visual acuity): 6 spatial frequencies 0.031-0.272 cycles/degree, vs control KI; for thickness of the retina (OCT): vs control KI group; for statistical association with normal fundi vs control KI group: chi-square / Fisher's exact test
Source text: Prpf31^A216P/+ mice are a useful model for assessing the degeneration of the RPE. This model is characterized by an increase in the thickness of the Bruch membrane and accumulation of esterified cholesterol between said membrane and the RPE produced by a defect in the splicing of the mRNA of relevant genes of the visual cycle, such as RPE65 and RDH12. The accumulation of toxic products derived from retinol leads to an increase in ROS, infiltration of macrophages, and primary degeneration of the RPE. The degeneration of the RPE occurs late, at approximately 8 months of age. The phenotypic characteristics of this model can be exacerbated by exposure to intense light and are characterized primarily by accumulation of pseudo-drusenoid lesions and regions of atrophy observed in the fundus, with a loss of visual acuity and perception of contrast being observed, as well as a decrease in the amplitude of the c-wave of the ERG and a decrease in the thickness of the retina.
To evaluate the protective effect of the administration of our compounds in eye drops, we used heterozygous 6 month-old Prpf31^A216P/+ (KI) mice that were treated topically with 20 μl of the studied compounds applied directly on the corneal surface daily (L-V) for two and a half months. The compounds used were RES and compound 2, which were diluted in a solution of 13% hydroxypropyl-beta-cyclodextrin (CYCLO) in order to obtain a final concentration of 2 mM of each compound. After two and a half months of application of the eye drops with CICLO, RES, or compound 2, the mutant KI mice were exposed to a light source of 5,000 lux for 3 hours. Normal (WT) and KI mice were also exposed to intense light as test control without receiving any treatment. Subsequently, the fundus of the animals was evaluated, in addition to the visual acuity by means of the optomotor test, the thickness of the retina by means of optical coherence tomography (OCT), and the amplitude of the c-wave by ERG.
Two categories were used to quantify the macroscopic characteristics of the fundus: abnormal and normal fundus. The fundi categorized as abnormal were those in which the presence of autofluorescent pseudo-drusenoid lesions was observed (FIG. 11; arrows) or with regions of focal atrophy (FIG. 11; arrowheads). The percentage of abnormal fundi in the WT mice exposed to light (WT control) was 20%, and in the untreated KI (KI control) it was 90%. Meanwhile, this percentage was reduced to 30% in mice treated with compound 2 (KI 2) and only to 60% in both mice treated with CYCLE (KI CYCLE) and RES (KI RES) (table 1). […] These values were similar to those observed when comparing WT control and KI control (chi-square=7.35, P<0.01, Fisher's exact test P<0.05) and with a probability of obtaining a normal fundus in the WT control group of eight times greater than in the control KI (normal RR=8; IC95%=1.184-54.043).
To evaluate the thickness of the retina in vivo, a Stratus OCT (Zeiss) was used with a scanner adjusted to 6 lines of 3.45 mm each arranged radially. Six measurements were performed in each eye, upon which the retinal map was prepared (FIG. 12) with the thickness of the retina quantified from the ganglion cell layer to the RPE.
To evaluate the functional integrity of the RPE, the amplitude of the c-wave in the ERG was measured. The c-wave is defined as a positive slow wave that appears after the b-wave and is used to measure the functional integrity of the RPE. Since the amplitude of this wave can be affected by the integrity of the photoreceptors, it is best to normalize the results with the amplitude of the b-wave, for which reason a quantification was performed of the proportion of the amplitude of the c-wave between the amplitude of the b-wave (c-/b-wave ratio) (FIG. 13). […]

[2] = KI mice, 2 mM eye drops, light damage

Compound	IL-6 in culture medium (RAW 264.7 macrophages; ELISA)	TNF-α in culture medium (RAW 264.7 macrophages; ELISA)	NO in culture medium (RAW 264.7 macrophages; Griess reagent)	LC50 [1]	Fundus Normal (%) (Prpf31^A216P/+ (KI) mice; KI mice)	Fundus Abnormal (number) (Prpf31^A216P/+ (KI) mice; KI mice)	Fundus Normal (number) (Prpf31^A216P/+ (KI) mice; KI mice)	autofluorescent pseudo-drusenoid lesions and regions of focal atrophy in the fundus (Prpf31^A216P/+ (KI) mice; [2])	number of positive responses in optomotor test (visual acuity) (Prpf31^A216P/+ (KI) mice; [2])	thickness of the retina (OCT) (Prpf31^A216P/+ (KI) mice; [2])	statistical association with normal fundi vs control KI group (Prpf31^A216P/+ (KI) mice)	Fundus Abnormal (%) (Prpf31^A216P/+ (KI) mice; KI mice)	Fundus Abnormal (%) (Prpf31^A216P/+ (KI) mice; KI mice, listed as compound 2)	c-/b-wave ratio (ERG) (Prpf31^A216P/+ (KI) mice; [2])	autofluorescent pseudo-drusenoid lesions and regions of focal atrophy in the fundus (Prpf31^A216P/+ (KI) mice; KI mice, 2 mM eye drops, light damage, listed as compound 2)	RR normal (probability of normal fundus vs. KI control) (Prpf31^A216P/+ (KI) mice; vs KI control, IC95% = 1.044-46.949)
Oc1ccc(C=Cc2cc(O)cc(O)c2)cc1 [RES, resveratrol, reference compound]	significantly decreases	significantly decreases	significantly decreases	< 1000 µM	(40) %	6	4	areas with autofluorescent punctiform yellow-white lesions (arrows) were observed	only significant at 0.194 cycles/degree	significantly greater	no statistically significant association					
CCCCCCCC(=O)OCC1OC(Oc2cc(O)cc(/C=C/c3ccc(O)cc3)c2)C(O)C(O)C1O [Compound 2, trans-resveratrol-3-O-(6′-O-octanoyl)-β-D-glucopyranoside]	similarly			< 140 µM	(70)* %	3	7	this type of lesion was not observed	significantly higher	significantly greater	statistically significant relationship	(30) %	30%	significantly higher	prevented the formation	7
